Assay results reported in patent publication US20140296137A1, “METHODS AND COMPOSITIONS FOR CONTROLLING ROTIFERS” (Los Alamos National Security, LLC, priority 2013, published 2014).
Where two headings read alike, the source gives them in different places. Ends that are not written are not given here.

Columns and labels:
[1] = test system: Chlamydomonas reinhardtii
Description: (§1) This example provides the minimal inhibitory concentration (MIC) of antimicrobial peptides (AMPs) for algae. […] Therefore, the tolerance of algae to the AMPs listed in Table 2 of Example 1 was measured.
(§2) Briefly, the algae viability assay used herein measured the “health” of the algae cultures by looking at the color of the algae. […] A visual assay was used to determine the MIC for the individual AMPs on the algae. In each case, a light microscope with 20× magnification was used to observe algae color.
(§3) The effect of insecticidal and non-insecticidal AMPs on three different algae species was measured. The three algae species were Auxenochlorella protothecoides, Chlorella sorokiniana and Chlamydomonas reinhardtii.
(§4) Algae cultures were initiated in 96-well plates at an OD 750 of approximately 0.1. […] The antibiotics hygromycin and paromycin served as positive controls for inhibiting and/or reducing the growth rate of algae. […] The algae cultures were monitored by preparing microscopy slides with a small sample taken from the individual wells. The algae slides were then visualized under a 20× magnification microscope for algae viability as measured by algae color.

Chlorella protothecoides = test system: Chlorella protothecoides
Description: as §1, §2, §3, §4

Chlorella sorokiniana = test system: Chlorella sorokiniana
Description: as §1, §2, §3, §4

Philodina acuticornis = format: in vivo; set-up: key to the marks not given beside the values; conditions: AMP 0.5 mg/mL, 24 hr time point, room temperature, visual motility score
Description: (§5) Briefly, the rotifer motility assay used herein in the presence of a biocontrol agent (e.g., AMP) may be used as a measure of relative rotifer viability and competency. Rotifer diet, of which algae is considered to be an important food source, is one of the key environmental factors that impact the growth and multiplication of rotifers. In effect, the inability of a rotifer to be mobile (i.e., inability to swim toward a food source and/or to have mobile cilia that help trap food) prevents the rotifer from ingesting sufficient nutrients to further grow and reproduce. Thus, any approach that reduces and/or inhibits rotifer motility has a significant impact on an individual rotifer and therefore rotifer populations. With respect to algae cultures, reducing and/or inhibiting rotifer motility prevents and/or reduces any negative impact rotifers have on algae cultures (e.g., open pond systems for algae biomass and biofuel production). In other words, reducing and/or inhibiting rotifer motility reduces and/or prevents rotifers (e.g., infestations) from ingesting and consequently damaging algae cultures use in biofuel production.
(§6) The effect of the insecticidal and non-insecticidal AMPs of Table 2 (Example 1) on three different rotifer species was measured. The three rotifer species were Adineta vaga and Philodina acuticornis (class Bdelloid rotifers), and Brachionus (Monogononta class). A visual motility assay was used to determine the impact of the individual AMPs on rotifer viability. In each case, a light microscope with 20× magnification was used to observe rotifer motility (activity). […] FIGS. 1A, 1C and 1E show a 20× magnification of Adineta vaga, Philodina acuticornis and Brachionus (untreated), respectively. FIGS. 1B, 1D and 1F show a 20× magnification of Adineta vaga, Philodina acuticornis and Brachionus (AMP treated), respectively.
(§7) Rotifer cultures were initiated in 12-well or 24-well plates at a density of approximately 100-200 rotifers/mL. The 12-well plates contained a volume of 1 mL per well, and the 24-well plates contained a volume of about 0.25 mL to about 0.35 mL per well. Individual rotifer cultures (individual wells) were incubated with a select AMP at a concentration of 0.5 mg/mL (or a range of about 78 μM to about 365 μM) for 18, 21 and 24 hours at room temperature. The rotifer cultures were monitored by preparing microscopy slides with a small sample taken from the individual wells. The slides were then visualized under a 20× magnification microscope for rotifer motility. […] The scoring system was based on observing a subset of the rotifer population from each well. The impact on the subset of rotifers observed served as a representative of the impact on the entire rotifer population for that particular AMP treatment.
(§8) A summary of the motility assay (or “Kill Assay”) for each insecticidal and non-insecticidal AMP incubated with the three different rotifer species for the 24 hour time point is provided below in Table 5 (insecticidal AMPs) and Table 6 (non-insecticidal AMPs). The 18 and 21 hour time points gave similar results to the 24 hour time point.

Adineta vaga = format: in vivo; set-up: key to the marks not given beside the values; conditions: AMP 0.5 mg/mL, 24 hr time point, room temperature, visual motility score
Description: as §5, §6, §7, §8

Brachionus = format: in vivo; conditions: AMP 0.5 mg/mL, 24 hr time point, room temperature, visual motility score
Description: as §5, §6, §7, §8

[2] = 5-6 days, room temperature, 96-well, algae colour under 20× microscope, ND = AMP killed all the algae

Row | Compound | Minimal Inhibitory Concentration (MIC) Chlamydomonas reinhardtii [1, 2] | Minimal Inhibitory Concentration (MIC) Chlorella protothecoides (Chlorella protothecoides; [2]) | Minimal Inhibitory Concentration (MIC) Chlorella sorokiana (Chlorella sorokiniana; [2]) [µM] | “Kill” Efficiency Philodina (Philodina acuticornis) | “Kill” Efficiency Adineta vaga (Adineta vaga) | “Kill” Efficiency Brachionus (Brachionus) | Minimal Inhibitory Concentration (MIC) Chlorella sorokiana (Chlorella sorokiniana) [µM] | Minimal Inhibitory Concentration (MIC) Chlamydomonas reinhardtii [1] [µM] | Minimal Inhibitory Concentration (MIC) Chlorella protothecoides (Chlorella protothecoides) [µM]
1 | GFGSLFKFLAKKVAKTVAKQAAKQGAKYVANKHME [Cupiennin 1D] | 32.9 µM | 16.5 µM | 65.9 | +++ | +++ |  |  |  | 
2 | GLVDVLGKVGGLIKKLLP [Ponericin G6] | 17.2 µM | 274.9 µM | 274.9 |  |  | +++ |  |  | 
3 | GWKDWAKKAGGWLKKKGPGMAKAALKAAMQ [Ponericin G1] | 19.5 µM | 78 µM | 155.8 | +++ | +++ | +++ |  |  | 
4 | FIHHIFRGIVHAGRSIGRFLTG [Piscidin 3] |  |  |  | +++ | +++ | +++ | 100.3 |  | 
5 | FWGALIKGAAKLIPSVVGLFKKKQ [Ponericin W5] | 12 µM | 12 µM | 24 | +++ | +++ | +++ |  |  | 
6 | FSFKRLKGFAKKLWNSKLARKIRTKGLKYVKNFAKDMLSEGEEAPPAAEPPVEAPQ [Im-1] | 9.9 µM | 9.9 µM | 19.7 | +++ | +++ | +++ |  |  | 
7 | MASRHMFLPLIGRVLSGIL [MsrA3] | 29.6 µM | 59.2 µM |  | +++ | +++ | + |  |  | 
8 | GWKDWLNKGKEWLKKKGPGIMKAALKAATQ [Ponericin G3] | 9.2 µM | 37 µM | 37 | +++ | +++ | +++ |  |  | 
9 | FFHHIFRGIVHVGKTIHRLVTG [Piscidin 1] |  |  |  | +++ | +++ | +++ | 24.3 | 12.2 | 12.2
10 | KWKLFKKIGIGKFLHWAKKF [W16-CA(1-8)-MA(1-12)] | 12.5 µM | ND (kills) | 25 | +++ | +++ | + |  |  | 
11 | WLGSALKIGAKLLPSVVGLFKKKKQ [Ponericin W1] | 11.5 µM | 23.1 µM | 46.1 | +++ | +++ | +++ |  |  | 
12 | GIWGTLAKIGIKAVPRVISMLKKKKQ [Ponericin W3] | 5.5 µM | 21.8 µM | 87.3 | +++ | +++ | +++ |  |  | 
13 | LLKELWTKIKGAGKAVLGKIKGLL [Ponericin L2] | 12.1 µM | 48.5 µM | 97 | +++ | +++ |  |  |  | 
14 | KWKLFKKIEKVGQNIRDGIIKAGPAVAVVGQATQIAK [Cecropin A] | 15.6 µM | 124.9 µM | 124.9 | ++ | +++ |  |  |  | 
15 | DFKDWMKTAGEWLKKKGPGILKAAMAAAT [Ponericin G4] | 19.8 µM | 158 µM | 79 |  |  |  |  |  | 
16 | FFHHIFRGIVHVGKTIHKLVTG [Piscidin 2] |  | 24.6 µM |  | +++ | +++ | +++ | 24.6 |  | 
17 | CC[C@H](C)[C@H](NC(=O)CN)C(=O)NCC(=O)N[C@@H](C)C(=O)N[C@H](C(=O)N[C@@H](CC(C)C)C(=O)N[C@@H](CCCCN)C(=O)N[C@H](C(=O)N[C@@H](CC(C)C)C(=O)N[C@H](C(=O)N[C@H](C(=O)NCC(=O)N[C@@H](CC(C)C)C(=O)N1CCC[C@H]1C(=O)N[C@@H](C)C(=O)N[C@@H](CC(C)C)C(=O)N[C@H](C(=O)N[C@@H](CO)C(=O)N[C@@H](Cc1c[nH]c2ccccc12)C(=O)N[C@H](C(=O)N[C@@H](CCCCN)C(=O)N[C@@H](CCCNC(=N)N)C(=O)N[C@@H](CCCCN)C(=O)N[C@@H](CCCNC(=N)N)C(=O)N[C@@H](CCC(N)=O)C(=O)N[C@@H](CCC(N)=O)C(N)=O)[C@@H](C)CC)[C@@H](C)CC)[C@@H](C)O)[C@@H](C)O)C(C)C)C(C)C [Melittin] | ND (kills) | 11 µM | 11 | +++ | +++ |  |  |  | 
18 | GIWGTALKWGVKLLPKLVGMAQTKKQ [Ponericin W4] | 11 µM | 43.8 µM | 87.6 | +++ | +++ | +++ |  |  | 
19 | IWLTALKFLGKHAAKHLAKQQLSKL [Lycotoxin-1, Lycotoxin I] | 22 µM | 44 µM | 88 | +++ | +++ | +++ |  |  | 
20 | GIGKFLHSAKKFGKAFVGEIMNS [Magainin 2] |  |  |  | +++ | +++ | + | 50.7 |  | 
